In patent US7022697B2, “4-(Oxadiazol-3-yl)-1,4-diazabicyclo[3.2.2]-nonane derivatives, preparation and therapeutic use thereof” (Sanofi-aventis, priority 2001, dated 2006):
Counter-ions that a name gives are not always drawn.

melting point	SMILES
269 to 272 °C	c1cc(-c2nc(N3CCN4CCC3CC4)no2)ccn1 (as salt: HBr)
247 to 248 °C	C1CNC(c2nc(N3CCN4CCC3CC4)no2)CN1 (stereo not drawn) (as salt: HBr)
256 to 258 °C	c1ccc2c(-c3nc(N4CCN5CCC4CC5)no3)cccc2c1 (as salt: HBr)
249 to 251 °C	c1coc(-c2nc(N3CCN4CCC3CC4)no2)c1 (as salt: HBr)
258 to 260 °C	c1ccc2sc(-c3nc(N4CCN5CCC4CC5)no3)cc2c1 (as salt: HBr)
260 to 264 °C	c1cncc(-c2nc(N3CCN4CCC3CC4)no2)c1 (as salt: HBr)
